The record followed here is patent US11779582B2, “Composition for preventing or treating metastatic ovarian cancer, endometrial cancer or breast cancer” (LEMONEX INC., priority 2017, dated 2023).

Holding throughout (type): cell-based
Data set [1] relates to monolayer cultured SKOV3ip1 ovarian cancer cells. As to the kind of experiment: crystal violet cell viability, 2D monolayer culture. To be noted: monolayer cultured SKOV3ip1, 72 hours, different concentrations, crystal violet colorimeter (FIG. 3). How it is done: 2D monolayer culture was implemented in the following manner: cells were cultured at 37° C., 5% CO2 humidified atmosphere using RPMI 1640 medium (Corning, NY, USA) supplemented with 10% fetal bovine serum (Gibco, NY, USA) and 10 U/ml penicillin/streptomycin.
Crystal violet staining was implemented to determine the cell viability in the monolayer cultured cell model and sphere cultured cell model. In order to implement the crystal violet staining in the monolayer culture model, SKOV3ip1 cells (5×10^4) were dispensed in commercial 24-well plates and incubated overnight. Thereafter, the drug was dispensed with a desired concentration for experiment into each well, followed by further incubation for 72 hours. 300 μl of 0.2% crystal violet solution was added to each well, followed by further incubation for 20 minutes while gently stirring the same. The stained cells were washed with distilled water until a clean background is observed. For assessment using a colorimeter, the crystal violet dye was extracted with 1% SDS/PBS and absorbance was measured at 570 nm wavelength by EMax PLUS microplate reader (Molecular Device, USA).
(§1) The monolayer cultured or sphere cultured SKOV3ip1 cells were treated with the tyrosine kinase inhibitor and paclitaxel for 72 hours, the cell viability was determined by the crystal violet colorimeter, and results thereof are shown in FIG. 3.

In data set [2] the test system is sphere cultured SKOV3ip1 ovarian cancer cells. The experiment in a line: crystal violet cell viability, 3D sphere culture. The following applies: for cell viability: sphere cultured SKOV3ip1, 72 hours, different concentrations, crystal violet colorimeter (FIG. 3). The method, then: (§2) For 3D sphere culture, SKOV3ip1 cells (1×10^6) were dispensed on ultra-low adherent 6-well plate (Corning NY, USA), and then, cultured in 5% CO2 incubator using RPMI 1640 medium supplemented with 10% fetal bovine serum (Gibco, NY, USA) and 10 U/ml penicillin/streptomycin (Gibco).
In order to assess the cell viability in the sphere cultured cells, the SKOV3ip1 cells (5×10^4) were dispensed on the super-low adherent 24-well plate and cultured overnight. The cells were harvested from each well and the commercial 24-well plate was moved, followed by further incubation for 12 hours. The adhered and visualized cells were stained with 0.2% crystal violet solution for 20 minutes while gently agitating the same. The stained cells were washed with distilled water until a clean background is observed. For assessment using a colorimeter, the crystal violet dye was extracted with 1% SDS/PBS and absorbance was measured at 570 nm wavelength by EMax PLUS microplate reader (Molecular Device, USA).
as §1
Since the cell survival of the sphere cultured SKOV3ip1 cells is inhibited by BGJ398 treatment, whether such cell survival inhibition is intermediated through JAK/STAT3 signaling pathway was further examined. For this purpose, the selective JAK tyrosine kinase inhibitor AG490 was used at different concentrations of 3.125 to 50 μM in order to treat the monolayer cultured or sphere cultured SKOV3ip1 cells, and after 72 hours, whether it affects the cell viability and AKT and STAT3 activation was examined through crystal violet staining and immunostaining assay, and results thereof are shown in FIG. 7. Actin was used as a loading control group.
Under this ground, when administering BGJ398 in combination with paclitaxel typically used as the existing primary anticancer drug for ovarian cancer, whether paclitaxel resistance of the sphere cultured cells is overcome and improved was determined.

The subject of data set [3] is SKOV3-TR ovarian cancer cells. The experiment in a line: crystal violet cell viability in paclitaxel-resistant cells. The method, then: SKOV3-TR cell line was offered from Sood AK in MD-Anderson Cancer Center (USA) and then used in the present experiments.
Paclitaxel resistance of each of SKOV3 and SKOV3-TR was determined by measuring the cell viability through crystal violet colorimetric assay. This experiment was implemented three times and a difference in results thereof was estimated by student's t-test.
(§3) According to the same procedures as described in the previous examples, each cell line was divided and cultured by 2D monolayer culture and 3D sphere culture, respectively. Then, a change due to administration of BGJ398 alone or in combination with paclitaxel was analyzed through morphological analysis and crystal violet staining assay.

In data set [4] the test system is SKOV3-TR ovarian cancer cells. As to the kind of experiment: microscopic analysis of cell shape change due to cytotoxicity. The following applies: single agent: 2.5 μM BGJ398 or 50 nM paclitaxel (FIG. 20). How it is done: as §3
FIG. 20 illustrates a change in cell shape due to cytotoxicity under microscopic analysis, when paclitaxel alone, BGJ398 alone or in combination with paclitaxel was administered to SKOV3-TR ovarian cancer cells.

Data set [5] deals with sphere cultured SKOV3ip1 cells. The experiment in a line: microscopic observation of aggregated (spheroid) form. To be noted: 5 μM BGJ398, 3 μM TAE648, 5 μM imatinib (FIG. 5). How it is done:
as §2

Data set [6] deals with AKT and STAT3 phosphorylation in sphere cultured SKOV3ip1 cells. The experiment in a line: immunostaining of AKT and STAT3 phosphorylation, sphere culture. To be noted: for phosphorylated AKT at Ser473: sphere cultured, 5 μM BGJ398, 3 μM TAE648, 5 μM imatinib, 72 hours (FIG. 6). From the text: In order to identify whether a change in signaling pathways associated with cell survival appears or not according to 2D monolayer culture (2D MC) and 3D sphere culture (3D SC), immunostaining was implemented. More particularly, after culturing SKOV3ip1 cells (1×10^6) by 2D monolayer culture or 3D sphere culture described in section 1.1, expression of cell-signaling molecules including AKT, STAT3, p42/44 ERK and p38 MAPK was detected and activation states in the monolayer cultured cells and the sphere cultured cells were compared. The monolayer cultured or sphere cultured SKOV3ip1 cells were harvested and washed once with ice-cold 1× phosphate buffered saline, followed by dissolving the same in 100 μl ice-cold RIPA buffer (20 mM Tris-Cl, pH 8.0, 125 mM NaCl, […], 1 mM ethylene diamine tetraacetic acid, 1% Triton X-100, 0.5% sodium deoxycholate, 0.1% sodium dodecyl sulfate, 1× complete protease inhibitor cocktail (Roche, Mannheim, Germany)) on ice. After assessing the protein concentration using a Bradford Protein assay kit (Biorad, CA, USA), the same amount of proteins (30 μg) was separated by SDS-PAGE and moved to a nitrocellulose membrane, followed by immunostaining the same using a horseradish peroxide conjugated second antibody and a specific antibody. An immune activation band was detected with SuperSignal West Pico Chemiluminescent Substrate (Thermo, IL, USA) using a Fusion Solo chemiluminescence analyzer (Vilber Rourmat Marne la Vallee, France). Antibodies to STAT3 (H-190), STAT3 (B-7) phosphorylated at Tyr705 and actin (C-2) were purchased from Santa Cruz Biotechnology. Rabbit monoclonal antibodies on AKT, AKT (D9E) phosphorylated at Ser473, FGFR1 phosphorylated at Tyr 653/654, p42/44 MAPK, phosphorylated p42/44 MAPK, p38 MAPK and p38 MAPK phosphorylated at Tyr 180/182 were purchased from Cell Signaling Technology (MA, USA). Further, HRP-conjugated goat anti-mouse and rabbit secondary antibodies were purchased from Jackson Laboratories, while BGJ398 used in the experiment (against FGFR1/2/3) was purchased from Selleckchem (USA).
Under this ground, in order to determine whether BGJ398 can vary the state of AKT and STAT3 in the sphere cultured SKOV3ip1 cells, the monolayer cultured (MC) or sphere cultured (SC) SKOV3ip1 cells were subjected to treatment using 5 μM BGJ398, followed by examining the degree of phosphorylation due to the above treatment.
Further, the sphere cultured SKOV3ip1 cells were treated with 5 μM BGJ398 (BGJ), 3 μM TAE648 (TAE) and 5 μM imatinib (IMT), respectively. After 72 hours, a cell lysate was obtained and subjected to immunostaining, followed by analyzing active cellular expression of AKT and STAT3 with the antibody for the same. Further, a phosphorylation level of FGFR1 was used as a positive control group relative to BGJ treatment groups while actin was used as a loading control group. The immunostaining assay procedure was implemented in the same manner as in Example 1.
Since the cell survival of the sphere cultured SKOV3ip1 cells is inhibited by BGJ398 treatment, whether such cell survival inhibition is intermediated through JAK/STAT3 signaling pathway was further examined. […]

In a further data set the test system is SKOV3-TR. As to the kind of experiment: crystal violet staining assay, cisplatin and BGJ398, 2D culture. The following applies: 2D culture, cisplatin alone (FIG. 29). The method, then: (§4) According to the same procedures as described in the previous examples, each cell line was subjected to 2D culture and a change thereof upon administration of cisplatin alone, BGJ398 alone or in combination with cisplatin was analyzed through crystal violet staining assay.

A further data set deals with SKOV3ip1. The description is as above. To be noted: SKOV3ip1, 2D culture, cisplatin alone (FIG. 29). The method, then:
as §4

Take `CC(=O)O[C@H]1C(=O)[C@@]2(C)[C@H]([C@H](OC(=O)c3ccccc3)[C@]3(O)C[C@H](OC(=O)[C@H](O)[C@@H](NC(=O)c4ccccc4)c4ccccc4)C(C)=C1C3(C)C)[C@]1(OC(C)=O)CO[C@@H]1C[C@@H]2O` [paclitaxel, reference compound]: the cell viability result is “reduced by paclitaxel and TAE648 in a dose-dependent manner” in data set [1]; “more obviously resistant to paclitaxel than the monolayer cultured SKOV3ip1 cells” in data set [2]. In data set [3] (SKOV3-TR compared with SKOV3, crystal violet colorimetric assay (FIG. 15)), the paclitaxel resistance entry was “significantly higher than SKOV cell line”. Besides, the anticancer activity entry in data set [3] (paclitaxel alone (FIGS. 18, 19)) was “negligible”. For the same compound, in data set [4], the “cytotoxicity and morphological change” value was “negligible cytotoxicity and no morphological change”.
Consider `COc1cc(N2CCC(N3CCN(C)CC3)CC2)ccc1Nc1ncc(Cl)c(Nc2ccccc2S(=O)(=O)C(C)C)n1` [TAE684], for which the cell viability entry in data set [1] is “reduced by paclitaxel and TAE648 in a dose-dependent manner”; in data set [2], “TAE648 resistance was not identified”. Besides, the “aggregated (spheroid) form of cells” value in data set [5] was “spheroid degradation was not observed”. In addition, in data set [6], the “phosphorylated AKT at Ser473” value was “did not show such effects”.
In the case of `N#C/C(=C\c1ccc(O)c(O)c1)C(=O)NCc1ccccc1` [AG490, reference compound], in data set [2] (sphere cultured SKOV3ip1, AG490 3.125 to 50 μM, 72 hours (FIG. 7A)), the cell growth entry was “did not suppress cell growth”. For the same compound, the “AKT and STAT3 phosphorylation” value in data set [6] (sphere cultured SKOV3ip1, 5 μM BGJ398 (FIG. 6), AG490, 72 hours (FIG. 7B)) was “not inhibited”.
For the compound `Cc1ccc(NC(=O)c2ccc(CN3CCN(C)CC3)cc2)cc1Nc1nccc(-c2cccnc2)n1` [imatinib], the cell viability entry in data set [1] was “not effected”; in data set [2], “did not affect the cell viability”. Moreover, the “aggregated (spheroid) form of cells” value in data set [5] is “spheroid degradation was not observed”. Further, the “phosphorylated AKT at Ser473” value in data set [6] is on record as “did not show such effects”.
For the compound `N.N.[Cl][Pt][Cl]` [cisplatin, reference compound], the sensitivity to cisplatin entry in the data set with SKOV3-TR and in the data set on SKOV3ip1 was “exhibit sensitivity to cisplatin” throughout.
